Measurements reported in ChEMBL document CHEMBL1150479, “2-(3-hydroxypropoxy)-1,25-dihydroxyvitamin D3 (ED-71), preventive and therapeutic effects on bone mineral loss in ovariectomized rats” (Bioorg Med Chem Lett, 1993).
Activity calls are given as the source filed them. The calls are words filed in the database; no cut-off is given here.

Key:
Rattus norvegicus [1] = species on record: Rattus norvegicus; assay: In vitro bone resorption against ovariectomized rats; Stimulation; type: functional
Rattus norvegicus [2] = assay: In vivo intestinal calcium absorption was determined against ovariectomized rats; Stimulation; type: functional, organism-based
[3] = target: T1, Vitamin D-binding protein (Rattus norvegicus) (UniProt P04276); assay: In vitro binding potency against vitamin D binding protein (DBP) in ovariectomized rats
T1 sequence (whole entry): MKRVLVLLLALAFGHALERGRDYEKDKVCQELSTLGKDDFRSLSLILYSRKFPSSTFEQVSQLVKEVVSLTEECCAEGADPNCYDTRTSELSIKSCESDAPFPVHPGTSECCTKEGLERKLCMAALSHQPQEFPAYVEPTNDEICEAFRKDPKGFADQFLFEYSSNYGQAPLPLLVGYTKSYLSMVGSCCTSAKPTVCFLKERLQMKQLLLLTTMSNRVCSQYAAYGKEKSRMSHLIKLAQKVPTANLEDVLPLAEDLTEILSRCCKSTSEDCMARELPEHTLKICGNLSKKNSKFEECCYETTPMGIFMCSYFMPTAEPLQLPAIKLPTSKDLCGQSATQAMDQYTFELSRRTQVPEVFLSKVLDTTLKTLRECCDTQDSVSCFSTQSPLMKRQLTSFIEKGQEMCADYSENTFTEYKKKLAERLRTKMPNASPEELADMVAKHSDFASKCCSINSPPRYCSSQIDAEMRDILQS

[4] = target: T2, Vitamin D3 receptor (Rattus norvegicus) (UniProt P13053)
T2 sequence (whole entry): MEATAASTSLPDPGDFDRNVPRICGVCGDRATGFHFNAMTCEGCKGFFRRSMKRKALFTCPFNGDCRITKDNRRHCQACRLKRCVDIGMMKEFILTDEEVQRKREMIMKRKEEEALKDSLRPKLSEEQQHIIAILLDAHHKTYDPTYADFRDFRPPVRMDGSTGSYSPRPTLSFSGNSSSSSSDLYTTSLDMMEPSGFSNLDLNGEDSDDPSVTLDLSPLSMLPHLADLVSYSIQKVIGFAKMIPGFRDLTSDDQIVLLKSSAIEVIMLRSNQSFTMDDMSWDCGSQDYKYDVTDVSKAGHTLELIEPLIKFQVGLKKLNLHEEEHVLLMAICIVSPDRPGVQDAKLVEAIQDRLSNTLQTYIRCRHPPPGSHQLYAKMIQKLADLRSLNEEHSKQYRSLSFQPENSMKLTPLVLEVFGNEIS
Description: In vitro binding potency for vitamin D receptor VDR in ovariectomized rats

Rattus norvegicus [5] = assay: In vivo bone calcium mobilization was determined against ovariectomized rats; Stimulation; type: functional, organism-based
Rattus norvegicus [6] = species on record: Rattus norvegicus; assay: In vitro bone resorption against ovariectomized rats; Weak stimulation; type: functional
[7] = target: T2, Vitamin D3 receptor (Rattus norvegicus); assay: In vitro binding potency for vitamin D receptor VDR in 8 ovariectomized rats

Binding potency [3]	Binding potency [4]	Binding potency [7]	SMILES	Resorption (Rattus norvegicus [1])	Absorption (Rattus norvegicus [2])	Mobilization (Rattus norvegicus [5])	Resorption (Rattus norvegicus [6])
1	1		C=C1/C(=C\C=C2/CCC[C@]3(C)[C@@H]([C@H](C)CCCC(C)(C)O)CC[C@@H]23)C[C@@H](O)C[C@@H]1O	Active	Active	Active	
2.7		1	C=C1/C(=C\C=C2/CCC[C@]3(C)C([C@H](C)CCCC(C)(C)O)CC[C@@H]23)C[C@@H](O)[C@@H](OCCCO)[C@@H]1O (stereo not given in full)		Active	Active	Partially active
